Laboratory results reported in ChEMBL document CHEMBL1146649, “New highly active taxoids from 9 beta-dihydrobaccatin-9,10-acetals. Part 5” (2004).
≈ marks a conversion by molar mass, not a printed value.

Columns and labels:
[1] = test system: PC-6; assay: Concentration required to inhibit human PC-6/VCR29-9 cell line growth by 50% at 72 hr exposure; format: functional; settings: PC-6, 72 h
[2] = test system: Mus musculus; assay: Maximum rate of body weight loss after intravenous administration of 5.3 mg/kg of compound in mice; format: functional
[3] = test system: B16; assay: Antitumor activity of 11.9 mg/kg of perorally administered compound against B16 melanoma BL6 cells implanted into mice, value reported is percent compared to control; format: functional, Mus musculus; settings: route oral
[4] = test system: Mus musculus; assay: Antitumor activity of 5.3 mg/kg of intravenously administered compound against B16 melanoma BL6 cells implanted into mice, value reported is percent compared to control; format: functional; settings: route intravenous
[5] = test system: Mus musculus; assay: Number of mice died at 7.9 mg/kg of peroral dose of compound among the total 6 mice tested; format: functional; settings: route oral
[6] = test system: Mus musculus; assay: Effective dose of intravenously administered compound against B16 melanoma BL6 cells implanted into mice; range is 5.3-11.9; format: functional; settings: B16, iv
[7] = test system: B16; assay: Antitumor activity of 17.8 mg/kg of perorally administered compound against B16 melanoma BL6 cells implanted into mice, value reported is percent compared to control; format: functional, Mus musculus; settings: route oral
[8] = test system: Mus musculus; assay: Number of mice died at 7.9 mg/kg of intravenous dose of compound among the total 6 mice tested; format: functional
[9] = test system: Mus musculus; assay: Maximum rate of body weight loss after peroral administration of 17.8 mg/kg of compound in mice; format: functional; settings: route oral
[10] = test system: Mus musculus; assay: Maximum rate of body weight loss after peroral administration of 11.9 mg/kg of compound in mice; format: functional; settings: route oral
[11] = test system: Mus musculus; assay: Number of mice died at 17.8 mg/kg of intravenous dose among the total 6 mice tested; format: functional
[12] = test system: Mus musculus; assay: Number of mice died at 11.9 mg/kg of peroral dose, among the total 6 mice tested; format: functional; settings: route oral
[13] = test system: PC-12; assay: Concentration required to inhibit human PC-12 cell line growth by 50% at 72 hr continuous exposure; format: functional; settings: PC-12, 72 h
[14] = test system: Mus musculus; assay: Antitumor activity of 5.3 mg/kg of perorally administered compound against B16 melanoma BL6 cells implanted into mice, value reported is percent compared to control; format: functional; settings: route oral
[15] = test system: Mus musculus; assay: Maximum rate of body weight loss after peroral administration of 7.9 mg/kg of compound in mice; format: functional; settings: route oral
[16] = test system: Mus musculus; assay: Antitumor activity of 7.9 mg/kg of intravenously administered compound against B16 melanoma BL6 cells implanted into mice, value reported is percent compared to control; format: functional; settings: route intravenous
[17] = test system: B16; assay: Antitumor activity of 11.9 mg/kg of intravenously administered compound against B16 melanoma BL6 cells implanted into mice, value reported is percent compared to control; format: functional, Mus musculus; settings: route intravenous
[18] = test system: Mus musculus; assay: Maximum rate of body weight loss after intravenous administration of 11.9 mg/kg of compound in mice; format: functional
[19] = test system: PC-6; assay: Concentration required to inhibit human PC-6 cell line growth by 50% at 72 hr continuous exposure; format: functional; settings: PC-6, 72 h
[20] = test system: P388; assay: Concentration required to inhibit mouse P388 cell line growth by 50% at 72 hr continuous exposure; format: functional; settings: P388, 72 h
[21] = test system: Mus musculus; assay: Effective dose of perorally administered compound against B16 melanoma BL6 cells implanted into mice; range is 7.9-11.0; format: functional; settings: B16, po
[22] = test system: Mus musculus; assay: Number of mice died at 5.3 mg/kg of peroral dose of compound among the total 6 mice tested; format: functional; settings: route oral
[23] = test system: PC-6; assay: Concentration required to inhibit human PC-6/VP1-1 cell line growth by 50% at 72 hr exposure; format: functional; settings: PC-6, 72 h
[24] = test system: Mus musculus; assay: Maximum rate of body weight loss after intravenous administration of 7.9 mg/kg of compound in mice; format: functional
[25] = test system: Mus musculus; assay: Maximum rate of body weight loss after peroral administration of 5.3 mg/kg of compound in mice; format: functional; settings: route oral
[26] = test system: Mus musculus; assay: Number of mice died at 5.3 mg/kg of intravenous dose of compound among the total 6 mice tested; format: functional
[27] = test system: Mus musculus; assay: Number of mice died at 11.9 mg/kg of intravenous dose, among the total 6 mice tested; format: functional
[28] = test system: Mus musculus; assay: Number of mice died at 17.8 mg/kg of peroral dose among the total 6 mice tested; format: functional; settings: route oral
[29] = test system: Mus musculus; assay: Antitumor activity of 7.9 mg/kg of perorally administered compound against B16 melanoma BL6 cells implanted into mice, value reported is percent compared to control; format: functional; settings: route oral
[30] = test system: Mus musculus; assay: Maximum rate of body weight loss after peroral administration of 100 mg/kg of compound in mice; format: functional; settings: route oral
[31] = test system: Mus musculus; assay: Maximum rate of body weight loss after peroral administration of 600 mg/kg of compound in mice; <0 indicates no body weight loss; format: functional; settings: route oral
[32] = test system: Mus musculus; assay: Antitumor activity of 600 mg/kg of perorally administered compound against B16 melanoma BL6 cells implanted into mice, value reported is percent compared to control; format: functional; settings: route oral
[33] = test system: Mus musculus; assay: Number of mice died at 600 mg/kg of peroral dose of compound among the total 6 mice tested; format: functional; settings: route oral
[34] = test system: Mus musculus; assay: Number of mice died at 100 mg/kg of peroral dose of compound among the total 6 mice tested; format: functional; settings: route oral
[35] = test system: Mus musculus; assay: Antitumor activity of 100 mg/kg of perorally administered compound against B16 melanoma BL6 cells implanted into mice, value reported is percent compared to control; format: functional; settings: route oral
[36] = test system: Mus musculus; assay: Antitumor activity of 27.0 mg/kg of perorally administered compound against B16 melanoma BL6 cells implanted into mice, value reported is percent compared to control; format: functional; settings: route oral
[37] = test system: Mus musculus; assay: Number of mice died at 18.0 mg/kg of peroral dose of compound among the total 6 mice tested; format: functional; settings: route oral
[38] = test system: Mus musculus; assay: Maximum rate of body weight loss after intravenous administration of 5.3 mg/kg of compound in mice; <0 indicates no body weight loss; format: functional
[39] = test system: Mus musculus; assay: Number of mice died at 8.0 mg/kg of peroral dose of compound among the total 6 mice tested; format: functional; settings: route oral
[40] = test system: Mus musculus; assay: Effective dose of perorally administered compound against B16 melanoma BL6 cells implanted into mice; range is 12.0-27.0; format: functional; settings: B16, po
[41] = test system: Mus musculus; assay: Number of mice died at 12.0 mg/kg of intravenous dose of compound among the total 6 mice tested; format: functional
[42] = test system: Mus musculus; assay: Maximum rate of body weight loss after peroral administration of 12.0 mg/kg of compound in mice; <0 indicates no body weight loss; format: functional; settings: route oral
[43] = test system: Mus musculus; assay: Maximum rate of body weight loss after intravenous administration of 18.0 mg/kg of compound in mice; format: functional
[44] = test system: Mus musculus; assay: Number of mice died at 18.0 mg/kg of intravenous dose of compound among the total 6 mice tested; format: functional
[45] = test system: Mus musculus; assay: Maximum rate of body weight loss after peroral administration of 18.0 mg/kg of compound in mice; format: functional; settings: route oral
[46] = test system: Mus musculus; assay: Number of mice died at 27.0 mg/kg of peroral dose of compound among the total 6 mice tested; format: functional; settings: route oral
[47] = test system: Mus musculus; assay: Antitumor activity of 8.0 mg/kg of intravenously administered compound against B16 melanoma BL6 cells implanted into mice, value reported is percent compared to control; format: functional; settings: route intravenous
[48] = test system: Mus musculus; assay: Number of mice died at 12.0 mg/kg of peroral dose of compound among the total 6 mice tested; format: functional; settings: route oral
[49] = test system: Mus musculus; assay: Maximum rate of body weight loss after intravenous administration of 8.0 mg/kg of compound in mice; <0 indicates no body weight loss; format: functional
[50] = test system: Mus musculus; assay: Antitumor activity of 12.0 mg/kg of perorally administered compound against B16 melanoma BL6 cells implanted into mice, value reported is percent compared to control; format: functional; settings: route oral
[51] = test system: Mus musculus; assay: Antitumor activity of 18.0 mg/kg of intravenously administered compound against B16 melanoma BL6 cells implanted into mice, value reported is percent compared to control; format: functional; settings: route intravenous
[52] = test system: Mus musculus; assay: Maximum rate of body weight loss after peroral administration of 27.0 mg/kg of compound in mice; format: functional; settings: route oral
[53] = test system: Mus musculus; assay: Antitumor activity of 12.0 mg/kg of intravenously administered compound against B16 melanoma BL6 cells implanted into mice, value reported is percent compared to control; format: functional; settings: route intravenous
[54] = test system: Mus musculus; assay: Antitumor activity of 8.0 mg/kg of perorally administered compound against B16 melanoma BL6 cells implanted into mice, value reported is percent compared to control; format: functional; settings: route oral
[55] = test system: Mus musculus; assay: Maximum rate of body weight loss after intravenous administration of 12.0 mg/kg of compound in mice; <0 indicates no body weight loss; format: functional
[56] = test system: Mus musculus; assay: Antitumor activity of 18.0 mg/kg of perorally administered compound against B16 melanoma BL6 cells implanted into mice, value reported is percent compared to control; format: functional; settings: route oral
[57] = test system: Mus musculus; assay: Maximum rate of body weight loss after peroral administration of 8.0 mg/kg of compound in mice; <0 indicates no body weight loss; format: functional; settings: route oral
[58] = test system: Mus musculus; assay: Number of mice died at 8.0 mg/kg of intravenous dose of compound among the total 6 mice tested; format: functional
[59] = test system: Mus musculus; assay: Effective dose of intravenously administered compound against B16 melanoma BL6 cells implanted into mice; range is 5.3-18.0; format: functional; settings: B16, iv

## CC(=O)O[C@@]12CO[C@@H]1CC[C@@]1(C)[C@@H]3O[C@H](CN(C)C)O[C@@H]3C3=C(C)[C@@H](OC(=O)[C@H](O)[C@@H](NC(=O)OC(C)(C)C)c4cccc(F)n4)C[C@@](O)([C@@H](OCc4ccccc4)[C@@H]12)C3(C)C
[1]
  GI50: 2.58 ng/mL (≈ 2.97 nM)
[2]
  BWLmax: 2%
[3]
  IR: 97.4%
[4]
  IR: 67.6%
[5]
  Mortality: 0
[6]
  ED50: 11.9 mg/kg
[7]
  IR: 94.8%
[8]
  Mortality: 0
[9]
  BWLmax: 13.9%
[10]
  BWLmax: 12.9%
[11]
  Mortality: 6
[12]
  Mortality: 0
[13]
  GI50: 0.62 ng/mL (≈ 0.714 nM)
[14]
  IR: 42.4%
[15]
  BWLmax: 3.8%
[16]
  IR: 91.5%
[17]
  IR: 95.6%
[18]
  BWLmax: 12%
[19]
  GI50: 0.38 ng/mL (≈ 0.438 nM)
[20]
  GI50: 0.67 ng/mL (≈ 0.772 nM)
[21]
  ED50: 11 mg/kg
[22]
  Mortality: 0
[23]
  GI50: 21.3 ng/mL (≈ 24.5 nM)
[24]
  BWLmax: 2.9%
[25]
  BWLmax: <0%
[26]
  Mortality: 0
[27]
  Mortality: 0
[28]
  Mortality: 5
[29]
  IR: 91.5%

## CC(=O)O[C@@]12CO[C@@H]1C[C@H](O)[C@@]1(C)C(=O)[C@H](O)C3=C(C)[C@@H](OC(=O)[C@H](O)[C@@H](NC(=O)OC(C)(C)C)c4ccccc4)C[C@@](O)([C@@H](OCc4ccccc4)[C@H]21)C3(C)C
[1]
  GI50: 62.1 ng/mL (≈ 78.2 nM)
[30]
  BWLmax: <0%
[31]
  BWLmax: <0%
[32]
  IR: 6.2%
[33]
  Mortality: 0
[13]
  GI50: 19.1 ng/mL (≈ 24.1 nM)
[19]
  GI50: 0.26 ng/mL (≈ 0.327 nM)
[34]
  Mortality: 0
[20]
  GI50: 0.78 ng/mL (≈ 0.982 nM)
[23]
  GI50: 442 ng/mL (≈ 557 nM)
[35]
  IR: 95.1%

## CC(=O)O[C@@]12CO[C@@H]1C[C@H](O)[C@@]1(C)[C@@H]3OC(CN4CCOCC4)O[C@@H]3C3=C(C)[C@@H](OC(=O)[C@H](O)[C@@H](NC(=O)OC(C)(C)C)c4ccccn4)C[C@@](O)([C@@H](OCc4ccccc4)[C@H]21)C3(C)C (stereo partly specified)
[1]
  GI50: 2.43 ng/mL (≈ 2.68 nM)
[4]
  IR: 62.4%
[36]
  IR: 97.3%
[37]
  Mortality: 0
[38]
  BWLmax: <0%
[39]
  Mortality: 0
[40]
  ED50: 27 mg/kg
[41]
  Mortality: 0
[13]
  GI50: 0.13 ng/mL (≈ 0.143 nM)
[42]
  BWLmax: <0%
[43]
  BWLmax: 3.7%
[44]
  Mortality: 0
[45]
  BWLmax: 0.3%
[46]
  Mortality: 0
[47]
  IR: 87.2%
[19]
  GI50: 0.26 ng/mL (≈ 0.286 nM)
[48]
  Mortality: 0
[49]
  BWLmax: <0%
[20]
  GI50: 0.18 ng/mL (≈ 0.198 nM)
[23]
  GI50: 19.3 ng/mL (≈ 21.3 nM)
[50]
  IR: 84.9%
[51]
  IR: 95.6%
[52]
  BWLmax: 4.5%
[53]
  IR: 94.4%
[54]
  IR: 27.2%
[26]
  Mortality: 0
[55]
  BWLmax: <0%
[56]
  IR: 93.3%
[57]
  BWLmax: <0%
[58]
  Mortality: 0
[59]
  ED50: 18 mg/kg
